From patent US12404250B2, “PARP inhibitors for treating cancer and asthma” (Oregon Health & Science University, priority 2018, dated 2025) come the findings set out here.

Usually IC50 stands for the concentration that gives 50% inhibition.

SMILES strings stand for the structures.

In experiment [1] the target is PARP 1 (Homo sapiens, UniProt P09874). As to the kind of experiment: In vitro IC50, PARP1. Type of experiment: biochemical. The following applies: SEM from a minimum of three dose-response experiments.
In experiment [2] the target is T1, PARP12 (Homo sapiens, UniProt Q9H0J9).
T1 construct: expressed in transfected cells; host or cells: HEK 293T
T1 sequence (Q9H0J9 1-701): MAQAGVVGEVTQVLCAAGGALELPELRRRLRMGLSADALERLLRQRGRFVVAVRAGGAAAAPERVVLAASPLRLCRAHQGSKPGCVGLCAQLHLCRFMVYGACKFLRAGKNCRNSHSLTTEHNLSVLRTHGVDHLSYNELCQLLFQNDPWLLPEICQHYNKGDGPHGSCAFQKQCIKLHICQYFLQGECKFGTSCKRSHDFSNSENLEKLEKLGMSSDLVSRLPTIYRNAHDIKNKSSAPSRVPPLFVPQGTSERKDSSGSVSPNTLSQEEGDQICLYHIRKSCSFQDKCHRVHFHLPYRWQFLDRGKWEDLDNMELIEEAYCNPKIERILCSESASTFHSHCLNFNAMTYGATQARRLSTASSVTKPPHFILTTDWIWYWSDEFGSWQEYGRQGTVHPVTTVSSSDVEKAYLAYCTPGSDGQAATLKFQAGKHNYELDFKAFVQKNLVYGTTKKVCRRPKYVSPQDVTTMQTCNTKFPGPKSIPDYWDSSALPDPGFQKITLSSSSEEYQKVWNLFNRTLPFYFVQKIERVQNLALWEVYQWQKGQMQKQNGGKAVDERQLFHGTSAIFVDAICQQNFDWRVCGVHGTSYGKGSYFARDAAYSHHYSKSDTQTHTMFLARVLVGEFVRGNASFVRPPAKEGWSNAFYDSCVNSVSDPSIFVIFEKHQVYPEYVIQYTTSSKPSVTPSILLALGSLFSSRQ
As to the kind of experiment: In vitro IC50, immunoprecipitated GFP-PARP12 auto-MARylation. Type of experiment: biochemical.
Method: (§1) Auto-MARylation was analyzed by Western blot with an ADP-ribose (ADPr) binding reagent (uncropped blots shown below).

In experiment [3] the target is T2, PARP16 (Homo sapiens, UniProt Q8N5Y8).
T2 construct: expressed in transfected cells; host or cells: HEK 293T
T2 sequence (Q8N5Y8 1-322): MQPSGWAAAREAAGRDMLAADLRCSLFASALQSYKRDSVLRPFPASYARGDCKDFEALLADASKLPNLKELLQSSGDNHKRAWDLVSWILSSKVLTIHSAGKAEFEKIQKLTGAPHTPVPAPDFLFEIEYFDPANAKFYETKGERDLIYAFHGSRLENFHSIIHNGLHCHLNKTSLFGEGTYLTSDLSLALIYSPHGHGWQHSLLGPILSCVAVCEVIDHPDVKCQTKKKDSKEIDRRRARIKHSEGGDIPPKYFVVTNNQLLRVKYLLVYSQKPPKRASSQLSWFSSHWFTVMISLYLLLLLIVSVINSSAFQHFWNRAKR
As to the kind of experiment: In vitro IC50, immunoprecipitated GFP-PARP16 auto-MARylation. Type of experiment: biochemical.
Method: as §1

In experiment [4] the target is T3, PARP1/2 (Homo sapiens, UniProt P09874).
T3 construct: expressed in transfected cells; host or cells: HEK 293T
Nature of the experiment: H2O2-stimulated PARP1/2 activity in HEK 293T cells (Western blot). In kind it is cell-based. The following applies: H2O2 500 μM for 15 min, Western blot with ADPr binding reagent. A general note: In western blotting, separated proteins are transferred to a membrane and probed.
Method: Lysates were prepared and PAR/MARylation was analyzed by Western blot with an ADP-ribose (ADPr) binding reagent. Blot was also probed with antibodies for GFP and actin. The band of interest represents auto-PARylated GFP-PARP1. […] Lysates were prepared and PAR/MARylation was analyzed by Western blot with an ADP-ribose (ADPr) binding reagent. Blot was also probed with antibodies for GFP and actin.
Lysates were prepared and PAR/MARylation was analyzed by Western blot with an ADP-ribose (ADPr) binding reagent. Blot was also probed with antibodies for GFP and actin. The band of interest represents auto-PARylated GFP-PARP1.

Experiment [5] addresses T4, GFP-PARP11 (Homo sapiens, UniProt Q9NR21).
T4 construct: expressed in transfected cells; host or cells: HeLa
T4 sequence (Q9NR21 1-338): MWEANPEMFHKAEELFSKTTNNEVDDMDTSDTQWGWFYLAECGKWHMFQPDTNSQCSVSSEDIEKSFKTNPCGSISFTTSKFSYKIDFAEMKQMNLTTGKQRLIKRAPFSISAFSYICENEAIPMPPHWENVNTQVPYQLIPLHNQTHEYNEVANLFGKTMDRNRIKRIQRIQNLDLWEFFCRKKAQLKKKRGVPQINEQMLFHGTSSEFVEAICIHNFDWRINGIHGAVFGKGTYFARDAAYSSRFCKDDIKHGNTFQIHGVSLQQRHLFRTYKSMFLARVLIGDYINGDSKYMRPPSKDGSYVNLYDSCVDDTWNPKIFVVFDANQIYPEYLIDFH
As to the kind of experiment: GFP-PARP11 localization at the nuclear envelope in HeLa cells. In kind it is cell-based. Conditions: HeLa cells transfected with GFP-PARP11, 1 μM for 1 or 18 h. How it is done: FIGS. 5A and 5B depict dissociation from the nuclear envelope in HeLa cells following ITK7 (Example 7) treatment. […] HeLa cells were transfected with GFP-PARP11 grown on glass cover-slips. After ITK7 (1 μM) treatment for 1 or 18 h cells were fixed and mounted using mounting medium containing DAPI. Images were taken on the Olympus FLUOVIEW™ 2000 microscope using an 60x/NA 1.40 oil objective (scale bar 10 μm).
HeLa cells were transfected with GFP-PARP11 grown on glass cover-slips. After ITK7 (1 μM) treatment for 1 or 18 h cells were fixed and mounted using mounting medium containing DAPI. Images were taken on the Olympus FLUOVIEW™ 2000 microscope using an 60x/NA 1.40 oil objective (scale bar 10 μm).

T3 sequence (P09874 2-1014): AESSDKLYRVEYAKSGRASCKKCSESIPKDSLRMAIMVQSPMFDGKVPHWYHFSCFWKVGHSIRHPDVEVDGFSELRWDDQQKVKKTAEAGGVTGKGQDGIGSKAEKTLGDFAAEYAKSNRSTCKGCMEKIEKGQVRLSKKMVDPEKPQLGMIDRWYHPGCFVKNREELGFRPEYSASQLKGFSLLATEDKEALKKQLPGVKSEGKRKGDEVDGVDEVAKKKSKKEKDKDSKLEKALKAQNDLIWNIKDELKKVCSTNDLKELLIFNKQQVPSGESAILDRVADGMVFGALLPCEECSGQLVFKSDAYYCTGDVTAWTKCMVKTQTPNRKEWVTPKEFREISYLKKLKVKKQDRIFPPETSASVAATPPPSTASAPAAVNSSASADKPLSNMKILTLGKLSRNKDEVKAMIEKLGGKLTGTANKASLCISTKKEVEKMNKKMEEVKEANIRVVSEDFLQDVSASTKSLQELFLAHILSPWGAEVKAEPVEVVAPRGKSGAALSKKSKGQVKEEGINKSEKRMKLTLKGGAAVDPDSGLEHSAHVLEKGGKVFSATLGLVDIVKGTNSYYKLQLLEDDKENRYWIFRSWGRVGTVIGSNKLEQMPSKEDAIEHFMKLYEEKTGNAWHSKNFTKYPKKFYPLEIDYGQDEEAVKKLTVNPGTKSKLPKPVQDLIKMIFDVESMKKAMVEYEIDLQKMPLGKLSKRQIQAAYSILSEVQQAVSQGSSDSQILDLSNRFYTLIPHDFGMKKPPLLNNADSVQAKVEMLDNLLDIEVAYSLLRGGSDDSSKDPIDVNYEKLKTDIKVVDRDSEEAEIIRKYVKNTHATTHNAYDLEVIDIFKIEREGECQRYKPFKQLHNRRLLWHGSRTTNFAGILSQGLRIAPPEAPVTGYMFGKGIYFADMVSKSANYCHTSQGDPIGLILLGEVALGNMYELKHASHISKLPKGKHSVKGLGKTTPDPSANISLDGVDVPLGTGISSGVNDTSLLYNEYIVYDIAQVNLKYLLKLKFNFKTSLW
Chain of PARP 1 (P09874 whole entry): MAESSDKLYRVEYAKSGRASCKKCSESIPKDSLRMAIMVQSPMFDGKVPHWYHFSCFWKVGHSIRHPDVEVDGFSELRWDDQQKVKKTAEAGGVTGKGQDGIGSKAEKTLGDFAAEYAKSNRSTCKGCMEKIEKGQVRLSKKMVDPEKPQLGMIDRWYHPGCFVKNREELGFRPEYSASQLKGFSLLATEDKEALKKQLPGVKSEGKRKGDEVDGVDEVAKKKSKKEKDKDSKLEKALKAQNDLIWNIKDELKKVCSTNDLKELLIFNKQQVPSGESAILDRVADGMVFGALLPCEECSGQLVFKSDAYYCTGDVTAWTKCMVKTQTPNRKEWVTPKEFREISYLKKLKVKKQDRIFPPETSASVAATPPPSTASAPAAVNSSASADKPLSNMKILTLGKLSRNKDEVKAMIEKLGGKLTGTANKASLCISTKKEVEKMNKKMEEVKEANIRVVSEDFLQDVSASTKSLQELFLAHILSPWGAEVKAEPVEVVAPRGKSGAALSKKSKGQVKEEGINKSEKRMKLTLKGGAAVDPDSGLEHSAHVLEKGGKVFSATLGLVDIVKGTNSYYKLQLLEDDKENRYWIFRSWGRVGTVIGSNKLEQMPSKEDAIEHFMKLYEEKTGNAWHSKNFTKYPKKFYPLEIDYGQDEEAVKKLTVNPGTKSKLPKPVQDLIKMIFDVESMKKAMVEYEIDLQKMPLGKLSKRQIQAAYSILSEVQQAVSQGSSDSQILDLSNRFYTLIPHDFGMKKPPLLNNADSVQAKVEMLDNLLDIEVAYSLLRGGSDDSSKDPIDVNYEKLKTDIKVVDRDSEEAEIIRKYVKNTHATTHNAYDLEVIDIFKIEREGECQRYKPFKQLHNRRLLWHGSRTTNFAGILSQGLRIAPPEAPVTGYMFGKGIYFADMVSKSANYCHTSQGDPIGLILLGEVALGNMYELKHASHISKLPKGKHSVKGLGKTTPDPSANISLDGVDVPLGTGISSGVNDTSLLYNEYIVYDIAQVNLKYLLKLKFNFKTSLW

As for `CC#Cc1ccc2c(=O)[nH]c(CSc3ncccn3)nc2c1C` [ITK7, 8-methyl-7-(prop-1-yn-1-yl)-2-((pyrimidin-2-ylthio)methyl)quinazolin-4(3H)-one], the 50% inhibitory concentration (IC50) is greater than 30 µM in experiment [1], greater than 3 µM in experiment [2] and greater than 3 µM in experiment [3]. Also, in experiment [4], the “Inhibition of H2O2-mediated PARP1 PARylation (PARP½ activity) in cells” value was “has no effect”. For the same molecule, the “Dissociation of GFP-PARP11 from the nuclear envelope” value in experiment [5] is listed as “causes GFP-PARP11 to dissociate from the nuclear envelope”.
